According to patent publication US8653069B2, “Aralkyl substituted piperidine or piperazine derivatives and their use for treating schizophrenia” (Jiangsu Hengyi Pharmaceutical Co., Ltd., priority 2008, dated 2014):
Structures can show the parent of a compound that is named as a salt. Where two headings read alike, the source gives them in different places.

Legend:
[1] = target: T1, rD2R (Rattus norvegicus, UniProt P61169); assay: Antagonistic test of D2 receptor (cAMP radioimmunoassay, Forskolin + Dopamine, CHO-rD2 cells); format: cell-based; settings: 10 μM Forskolin + 10 μM Dopamine, cAMP generated
T1 construct: expressed in transfected cells; host or cells: CHO cells stably expressing rD2R (CHO-rD2)
Procedure: An Antagonistic Test of D2 Receptor
CHO-rD2 cell is seeded on a 96-well plate at a concentration of 30,000 cells/well, and cultured overnight; each medicine is dissolved in a serum-free F12 culture media containing 100 μM of IBMX, and is added to the above cell for preculturing 30 minutes at 37° C.; thereafter a serum-free F12 culture media containing 10 μM of Forskolin and 10 μM of Dopamine is added and react for 8 minutes, and then 100 μl of pre-cooled 1M HClO4 is added to terminate the reaction. The reaction solution is allowed to stand on ice for 40 minutes, and thereto 20 μl of 2M K2CO3 is added to neutralize the reaction solution. The reaction solution is centrifuged at 3,000 rpm for 15 minutes at 4° C., and a KClO4 deposit is discarded. An amount of supernatant is diluted in 0.05M of acetic acid buffer, and the amount of generated cAMP is measured with radioimmunoassay method. […] See the kit's instructions for detailed steps. Two tubes under each concentration of each compound are measured, and each compound is subjected to two independent tests.
The ordinate of the dose-effect curve represents a reduced percentage of the amount of generated cAMP through antagonist of DA by the compound.

[2] = system: histidine auxotroph mutant of mouse salmonella TA97, TA98, TA100 and TA102
From the text: Bacterial Reverse Mutation Test of II-1
Strains: histidine auxotroph mutant of mouse salmonella TA97, TA98, TA100 and TA102.
Results: the test consists of two parts, i.e., −S9 and +S9. […] No bacteriostatic actions to all the strains are observed at all other doses, and the growth background is good.

[3] = in vivo; settings: mouse, po
[4] = Oral absorption in studies on animal models; format: in vivo
[5] = target: T2, dopamine D2 receptor (Homo sapiens, UniProt P14416); assay: Dopamine D2 receptor-binding assay ([3H]Spiperone displacement); settings: inhibition of binding of 0.4 nM [3H]Spiperone, CHO-hD2L film product, room temperature 120 minutes; read-out: IC50 (affinity to D2 receptor)
T2 construct: expressed in transfected cells; host or cells: CHO-hD2L cells (membrane preparation)
Procedure: A Dopamine D2 Receptor-Binding Assay
An isotope ligand for D2 receptor: [^3H]Spiperone (77.0 Ci/mmol); (+)Butaclamol; GF/C glass fiber media; a liposoluble scintillation solution; and the D2 receptor protein expressed by sf9 cells.
A binding assay of a film product of CHO-hD2L cells and [^3H]Spiperone is conducted in a 250 μl of 50 mM of Tris-HCl […] buffer (Ph=7.4) solution comprising 100 mM of NaCl, 1 mM of MgC12 and 1% of DMSO. A sample in duplicate containing compounds to be tested, 0.4 nM of [^3H]Spiperone and 12 ug of protein is maintained at room temperature for 120 minutes. The bound radioactive ligand is separated by flash filtration under reduced pressure using Whatman GF/B glass fiber filter pre-treated with 0.3% polyethylenelmine, and radioactivity maintained on the filter is measured using liquid scintillation spectrophotometry. The title compounds in the following examples are tested using the above test, which comprises first of all testing competitive inhibition rate of each compound at a concentration of 10 umol/L to binding of [^3H]Spiperone to D2 receptor through a rough screening; and compounds having inhibition rate higher than 95% are subjected to receptor binding assay under a series of concentrations to determine a half-inhibitory concentration (IC50, the concentration of a compound needed for inhibiting binding of 50% [^3H]Spiperone to D2 receptor). Two tubes under each concentration are measured, and each compound is subjected to two independent tests.

[6] = system: schizophrenia behaviors in mice induced by apomorphine; assay: In vivo anti-schizophrenia activity: apomorphine-induced stereotyped behavior in mice; settings: female KM mice, oral gavage 30 minutes before apomorphine 10 mg/kg i.p.; II-1 20 mg/kg, aripiprazole 5 mg/kg, risperidone 0.25 mg/kg
Procedure: A Test of In Vivo Anti-Schizophrenia Activity of Compound II-1
Apomorphine: apomorphine is dissolved in 0.1% ascorbic acid to form a solution having a dosage of 10 mg/kg.
Aripiprazole is dissolved in physiological saline to form a solution having a dosage of 5 mg/kg, and subjected to ultrasonication for dissolving.
Risperidone is dissolved in physiological saline to form a solution having a dosage of 0.25 mg/kg.
Compound II-1 is formulated to 20 mg/kg, and is formulated in situ for use.
Female KM mice, 18-22 g, are randomly divided into a solvent control group, a model control group, a positive control group, and various treatment groups of the tested medicines. Groups for behavior observation test contain 5 mice each group, and groups for activity observation test contain 4 mice each group.
(1) Administration in mice: each group of mice is administrated with 0.1 ml/10 g of the various tested medicines by oral gavage. […]
The stereotyped behavior numbers of the mice in various groups at six time points are statistically analyzed to calculate an average number of each mouse, and the result is denoted by mean±SD.
The test result of stereotyped behavior is statistically analyzed using a LSD method; and observation result of the numbers of activities of the mice is statistically analyzed with repeated-measures analysis of variance and Q-test.

T1 sequence (P61169 whole entry): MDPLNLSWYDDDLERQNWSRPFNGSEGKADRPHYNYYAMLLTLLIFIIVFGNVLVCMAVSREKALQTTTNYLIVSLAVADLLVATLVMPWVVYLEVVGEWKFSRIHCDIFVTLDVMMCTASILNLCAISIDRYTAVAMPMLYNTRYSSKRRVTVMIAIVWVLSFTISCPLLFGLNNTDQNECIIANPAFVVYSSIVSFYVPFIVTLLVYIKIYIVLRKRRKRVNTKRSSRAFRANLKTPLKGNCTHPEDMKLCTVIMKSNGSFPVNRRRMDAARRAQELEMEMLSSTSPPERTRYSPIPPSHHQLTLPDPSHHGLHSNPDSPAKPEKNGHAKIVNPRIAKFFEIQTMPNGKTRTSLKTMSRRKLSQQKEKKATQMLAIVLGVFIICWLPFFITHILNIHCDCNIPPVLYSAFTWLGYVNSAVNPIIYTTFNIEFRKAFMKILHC
T2 sequence (P14416 whole entry): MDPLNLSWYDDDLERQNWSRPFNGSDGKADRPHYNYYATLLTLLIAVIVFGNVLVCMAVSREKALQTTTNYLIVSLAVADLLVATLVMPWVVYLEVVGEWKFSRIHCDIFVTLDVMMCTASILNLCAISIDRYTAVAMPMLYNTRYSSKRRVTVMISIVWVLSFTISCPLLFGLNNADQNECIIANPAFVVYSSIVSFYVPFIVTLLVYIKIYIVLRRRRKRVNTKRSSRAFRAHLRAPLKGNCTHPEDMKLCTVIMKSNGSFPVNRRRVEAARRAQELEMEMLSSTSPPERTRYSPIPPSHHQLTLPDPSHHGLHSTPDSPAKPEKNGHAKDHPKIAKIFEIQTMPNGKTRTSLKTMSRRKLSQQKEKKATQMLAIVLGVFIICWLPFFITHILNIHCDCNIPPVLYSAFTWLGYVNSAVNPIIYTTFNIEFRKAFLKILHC

Row | Compound | IC50 [5] [nM] | also measured
1 | O=C1CCc2ccc(OCCCCN3CCC(c4noc5cc(F)ccc45)CC3)cc2N1 [II-1, 7-[4-(4-(6-fluoro-benzisoxazolyl)-1-piperidinyl)-n-butoxy]-3,4-dihydro-2(1H)-quinolinone hydrochloride] | 5.66 | IC50 [1]: 3380 nM; Ames test ([2]; TA97, TA98, TA100, TA102, with or without S9, all tested doses): negative; dose showing bacteriostatic action ([2]; TA97, test system containing S9): 5000 μg per dish; dose showing bacteriostatic action ([2]; TA98, test system without S9): 5000 μg per dish; LD50 [3]: > 2000 mg/kg; oral absorption [4]: good
2 | COc1ccc2onc(C3CCN(CCCCOc4ccc5c(c4)NC(=O)CC5)CC3)c2c1 [II-6, 7-[4-(4-(5-methoxy-benzisoxazolyl)-1-piperidinyl)-n-butoxy]-3,4-dihydro-2(1H)-quinolinone hydrochloride] | 277 | –
3 | O=C1CCc2ccc(OCCCCN3CCC(c4noc5ccc(F)cc45)CC3)cc2N1 [II-7, 7-[4-(4-(5-fluoro-benzisoxazolyl)-1-piperidinyl)-n-butoxy]-3,4-dihydro-2(1H)-quinolinone hydrochloride] | 12.6 | –
4 | COc1cc2onc(C3CCN(CCCCOc4ccc5c(c4)NC(=O)CC5)CC3)c2cc1OC [II-8, 7-[4-(4-(5,6-dimethoxy-benzisoxazolyl)-1-piperidinyl)-n-butoxy]-3,4-dihydro-2(1H)-quinolinone hydrochloride] | 23.8 | –
5 | O=C1CCc2ccc(OCCCCN3CCC(c4noc5ccc(O)cc45)CC3)cc2N1 [II-9, 7-[4-(5-hydroxy-benzisoxazolyl)-1-piperidinyl)-n-butoxy]-3,4-dihydro-2(1H)-quinolinone hydrochloride] | 78.8 | –
6 | O=C1CCc2ccc(OCCCCN3CCC(c4noc5cc(O)c(O)cc45)CC3)cc2N1 [II-10, 7-[4-(5,6-dihydroxy-benzisoxazolyl)-1-piperidinyl)-n-butoxy]-3,4-dihydro-2(1H)-quinolinone hydrochloride] | 45.6 | –
7 | O=C1CCc2ccc(OCCCCN3CCN(c4nsc5ccccc45)CC3)cc2N1 [III-1, 7-[4-(1,2-benzisothiazol-3-yl)-1-piperazinyl)-n-butoxy]-3,4-dihydro-2(1H)-quinolinone hydrochloride] | 5.23 | IC50 [1]: 56400 nM
8 | O=C1CCc2ccc(OCCCN3CCN(c4nsc5ccccc45)CC3)cc2N1 [III-2, 7-[3-(1,2-benzisothiazolyl)-1-piperazinyl]-n-propoxy]-3,4-dihydro-2(1H)-quinolinone hydrochloride] | 76.8 | –
9 | COc1ccc2c(N3CCN(CCCCOc4ccc5c(c4)NC(=O)CC5)CC3)nsc2c1 [III-4, 7-[4-(6-methoxy-1,2-benzisothiazolyl)-1-piperazinyl]-n-butoxy]-3,4-dihydro-2(1H)-quinolinone of hydrochloride] | 17.9 | –
10 | COc1cccc2c(N3CCN(CCCCOc4ccc5c(c4)NC(=O)CC5)CC3)nsc12 [III-5, 7-[4-(7-methoxy-1,2-benzisothiazolyl)-1-piperazinyl]-n-butoxy-3,4-dihydro-2(1H)-quinolinone hydrochloride] | 15.8 | –
11 | COc1ccc2snc(N3CCN(CCCCOc4ccc5c(c4)NC(=O)CC5)CC3)c2c1 [III-6, 7-[4-(5-methoxy-1,2-benzisothiazolyl)-1-piperazinyl]-n-butoxy]-3,4-dihydro-2(1H)-quinolinone hydrochloride] | 15 | –
12 | COc1cccc2snc(N3CCN(CCCCOc4ccc5c(c4)NC(=O)CC5)CC3)c12 [III-7, 7-[4-(4-methoxy-1,2-benzisothiazolyl)-1-piperazinyl]-n-butoxy]-3,4-dihydro-2(1H)-quinolinone hydrochloride] | 168 | –
13 | O=C1Cc2ccc(OCCCCN3CCC(c4noc5cc(F)ccc45)CC3)cc2N1 [IV-1, 6-[4-(4-(3-(6-fluoro-benzisoxazolyl))-1-piperidinyl)-n-butoxy)-indoline-2-one] | 38.9 | IC50 [1]: 198000 nM
14 | O=C1CCc2ccc(OCCCCN3CCN(c4cccc(Cl)c4Cl)CC3)cc2N1 [aripiprazole] | – | number of stereotyped activities of mice compared with the model group [6]: reduced significantly; LD50 [3]: 1400 mg/kg
15 | Cc1nc2n(c(=O)c1CCN1CCC(c3noc4cc(F)ccc34)CC1)CCCC2 [risperidone] | – | number of stereotyped activities of mice compared with the model group [6]: reduced significantly; LD50 [3]: 83.2 mg/kg
16 | O=C1Cc2cc(CCN3CCN(c4nsc5ccccc45)CC3)c(Cl)cc2N1 [ziprasidone] | – | LD50 [3]: 1600 mg/kg
